In patent publication US11951151B2, “Compositions comprising antimicrobial peptides” (University of Pittsburgh—Of the Commonwealth System of …, priority 2019, dated 2024):
“Also recorded” adds a separate entry of the source.

Legend:
[1] = system: S. aureus SH1000 mature biofilms; assay: S. aureus biofilm implant in vitro killing assay (mature biofilm on Kirschner wire, CFU analysis); assay type: cell-based, Staphylococcus aureus; conditions: for time to achieve 99.9% reduction of biofilm CFU compared to untreated implant pieces: treated in MHB media
Experimental: (§1) Bacterial strains and culture. S. aureus SH1000 was used for in vitro assays and the PJI animal model. SH1000 was inoculated in Tryptic Soy Broth (TSB, Becton Dickinson and Company) overnight at 37° C. with shaking at 250 rpm. Strains were diluted in Mueller Hinton Broth (MHB; Bectin Dickinson and Company) to a final concentration of 0.5×10^6 CFU/ml using the 0.5 MacFarland Standard (GFS Chemicals) and an Infinite M200 Spectrophotometer (Tecan). WLBU-2 (PLG0206) was supplied by Peptilogics (San Jose, California). All experiments were performed at least in triplicate at three separate times with freshly inoculated cultures.
S. aureus biofilm implant in vitro killing assays. Implant material was prepared from 0.6 mm diameter stainless steel Kirschner wire (Synthes) and cut into 6 mm length, autoclaved, and plated in wells along with SH1000 and all clinical strains at 1×10^6 CFU/ml. After plating, fresh MHB media was exchanged at 24 hours. At 48 hours, wire with mature biofilms were either placed into fresh MHB with either cefazolin or WLBU-2. Biofilms were treated with cefazolin at 0.13, 0.25, 0.5, and 1 mg/ml or WLBU-2 at 62, 125, 250, and 500 μg/ml. Cefazolin treated biofilm were removed 2, 6, and 24 hours after drug addition, WLBU-2 treated biofilm were removed 5 min, 20 min, 60 min, and 2 hours after drug addition. After treatment, Kirschner wires were placed in 1 ml of 1% Tween 20 and sonicated for 10 minutes. Sonicate was serially diluted and plated on TSA II with 5% sheep blood CS100 plates blood agar for colony forming unit (CFU) analysis. For pH analysis, prior to WLBU-2 addition, PBS was adjusted to more acidic pH using hydrochloric acid and more alkaline pH using ammonium hydroxide. Infected implant pieces were tested with WLBU-2 at both 0.5 and 1.0 μg/ml in PBS adjusted to pH of 6.5, 6.8, 7.0, 7.2, 7.4, and 8.0. Biofilm implant pieces were treated at very early time points of 2.5-20 minutes, then CFU analysis was performed.
as §1, with “Becton” for “Bectin”
S. aureus biofilm implant in vitro killing assays. Implant material was prepared from 0.6 mm diameter stainless steel Kirschner wire (Synthes) and cut into 6 mm length, autoclaved, and plated in wells along with SH1000 and all clinical strains at 1×10^6 CFU/ml. After plating, fresh MHB media was exchanged at 24 hours. At 48 hours, wire with mature biofilms were either placed into fresh MHB, normal saline, lactated ringers, or dPBS with fold dilutions of WLBU-2 at 62, 125, 250, 500, and 1000 μg/ml. dPBS solutions were prepared using any combination of the salt buffers listed in Table 3, dissolved in sterile, deionized water. After treatment, Kirschner wires were placed in 1 ml of 1% Tween 20 in dPBS and sonicated for 10 minutes. Sonicate was serially diluted and plated on TSA II with 5% sheep blood CS100 plates blood agar for colony forming unit (CFU) analysis. For pH analysis, prior to WLBU-2 addition, dPBS was adjusted to more acidic pH using hydrochloric acid and more alkaline pH using ammonium hydroxide. Infected implant pieces were tested with WLBU-2 at both 0.5 and 1.0 mg/ml in PBS adjusted to pH of 6.5, 6.8, 7.0, 7.2, 7.4, and 8.0. For ionic strength analysis, dPBS was adjusted to hypertonic conditions by addition of NaCl to dPBS (0.3 M) and hypotonic conditions by addition of deionized water to dPBS (0.08 M). […]

[2] = system: S. aureus (strain: SH1000); assay: Rabbit PJI model, I&D with PLG0206 and/or systemic cefazolin, implant and tibia CFU up to Day 28; assay type: in vivo, Staphylococcus aureus
Experimental: (§2) A PJI New Zealand White Rabbit Animal model was used. A 3D printed tibia titanium implant was placed in the knee, and inoculated with S. aureus (strain: SH1000, inoculation density 2×10^6) after closure of the arthrotomy.
(§3) The rabbit is anesthetized with ketamine 40 mg/kg and xylazine 2 mg/kg during surgery. A bone tunnel in the tibial canal is created using a drill with a 1.2 mm or 1.6 mm tungsten carbide drill bit. The bone tunnel is then dried and treated to simulate acute human PJI following primary arthroplasty. A 3D printed titanium implant will then be placed in the bone tunnel and the wound closed. Prior to closure of the superficial skin layer, 0.1 mL of 2×10^6 planktonic bacteria (S. aureus; strain: SH1000; CFU/rabbit) in saline is injected into the joint space. A closure is performed, and a biofilm is allowed to become established over 2 days.
At 2 days post infection I&D will be performed on the infected joint and treatments will begin. Animals will receive treatment with an I&D alone, I&D with PLG0206, systemic treatment with cefazolin, or both PLG0206 and cefazolin When an animal dies or is sick and needs to be euthanized, the implant and a part of the tibia will be collected post mortem and bacterial burden will be determined by CFU. All surviving animals will be euthanized on Day 28 and the implant and tibia will be collected post mortem for CFU analysis.

[3] = system: S. aureus SH1000 biofilm on PJI implant; assay: Periprosthetic Joint Infection Murine Washout Model (implant retrieved from mice, washed with peptide, CFU analysis); assay type: in vivo, Staphylococcus aureus; conditions: mouse
Description: Periprosthetic Joint Infection Murine Washout Model. Twelve-week-old […] female mice (Jackson) were used for all experiments. Mice were anesthetized by 2% isoflurane, hair was removed from leg and treated with betadine. With a scalpel, a medial parapatellar incision was made, and lateral displacement of the quadriceps-patellar complex allowed for visualization of the femoral intercondylar notch. With a 25-gauge needle, the femoral intramedullary canal was manually reamed. Mature S. aureus biofilm previously established on a 0.6 mm wide/6 mm long Kirschner wire (Synthes) was inserted into the reamed canal, and sutured closed. 48 hours later, mice were euthanized and the infected Kirschner wire implant were extracted, placed in WLBU-2 at 1.0 mg/ml in PBS previously pH adjusted to 6.5, 7.0, 7.2, or 7.4 for 10 minutes, and then placed 1% Tween 20 on ice. Implants were sonicated for 10 minutes. Samples were serially diluted and plated on TSA II with 5% sheep blood CS100 plates for CFU analysis.

[4] = system: S. aureus (strain: SH1000); assay: Rabbit periprosthetic joint infection (PJI) model, ex vivo or in vivo treatment at I&D 2 days post infection, implant CFU; set-up: species or system Staphylococcus aureus
Experimental: as §2, §3
After 48 hours, animals were sacrificed and the implants were exposed to either topical cefazolin (10 mg/kg) or topical WLBU2 (1 mg/mL) in PBS (pH 7.4). Implants were sonicated 10 minutes, and colony forming unit (CFU) assay was performed on blood agar plates to quantify bacterial burden.
At 2 days post infection irrigation and debridement (I&D) was performed on the infected joint. Treatment with PLG0206 was administered at 1 mg/mL concentration (ex vivo or in vivo) and 0.5 mg/mL concentration (in vivo) at 15 (ex vivo and in vivo), and 7.5 minutes (in vivo) exposure times. For the ex vivo administration, the implant was removed and exposed to PLG0206 solution in a tube for 15 minutes. For the in vivo administration, irrigation and debridement on the joint was performed followed by PLG0206 treatment. The animals were euthanized after treatment, and the implants removed post mortem.

## Cc1nnc(SCC2=C(C(=O)O)N3C(=O)[C@@H](NC(=O)Cn4cnnn4)[C@H]3SC2)s1 [Cefazolin, reference compound]
[1]; MHB, 6 hours
  decrease in biofilm CFU over 6 hours: only a modest decrease
[1]
  time to achieve 99.9% reduction of biofilm CFU compared to untreated implant pieces: over 24 hours
[2]; cefazolin treatment alone (Group 2)
  reduction in bacterial burden: 1.5 log

## WLBU-2: RRWVRRVRRVWRRVVRVVRRWVRR (SEQ ID NO: 10); synthetically engineered cationic antimicrobial peptide (RRWVRRVRRVWRRVVRVVRRWVRR; Antimicrobial peptide WLBU-2)
[1]; 1.0 mg/ml in 6.5 pH PBS
  contact time needed to achieve a three-log reduction in biofilm CFU: 15 minutes
[1]; 1.0 mg/ml in 8.0 pH PBS
  contact time needed to achieve a three-log reduction in biofilm CFU: 2.5 minutes
[1]; PBS pH 7.4
  biofilm CFU after treatment (sterile samples): 0 CFU
[1]; PBS pH 8.0
  biofilm CFU after treatment (sterile samples): 0 CFU
[1]; dPBS at pH 7.5, 10 minutes, 62, 125, 250, 500 and 1000 μg/mL
  reduction in biofilm CFU: three-log reduction or greater; also recorded: three-log reduction
[1]; dPBS, pH 7.0, 62-1000 μg/ml, 10 minutes
  reduction in bacterial biofilm: over 99.9%
[1]; hypertonic dPBS at pH 7.5, 10 minutes
  reduction in biofilm CFU: a three-log reduction was not achieved
[1]; hypotonic dPBS at pH 7.5, 10 minutes, 62, 125, 250, 500 and 1000 μg/mL
  biofilm CFU after treatment: 0 CFU
[1]; hypotonic dPBS of 0.08 M
  time needed to obtain 0 CFU sterile samples, compared to hypertonic dPBS: less time needed
  time needed to obtain a three-log reduction, compared to hypertonic dPBS: less time needed
[1]; in buffered PBS, doses of 62-1000 μg/ml
  time to achieve a 99.9% reduction in biofilm CFU: ≤ 20 min
[1]; lactated ringers, pH 6.5, 62-1000 μg/ml, 10 minutes
  reduction in bacterial biofilm: over 99.9%
[1]; normal saline, measured pH of 5.8, 62-1000 μg/ml, 10 minutes
  reduction in bacterial biofilm CFUs: ~99%
[1]; pH of the washout solution above 7.0
  contact time needed to obtain above a 99.9% clearance of biofilms: under 5 minutes
[1]
  time to achieve 99.9% reduction of biofilm CFU compared to untreated implant pieces: under 2 hours
[3]; 1.0 mg/ml in PBS pH 7.0, 10 minutes
  biofilm CFU on PJI implant compared to No Drug group: significant reduction
[3]; 1.0 mg/ml in PBS pH 7.2, 10 minutes
  biofilm CFU on PJI implant compared to No Drug group: significant reduction
[3]; 1.0 mg/ml in PBS pH 7.4, 10 minutes
  biofilm CFU on PJI implant compared to No Drug group: significant reduction
[3]; 1.0 mg/ml in PBS, 10 minutes
  biofilm CFU on PJI implant, washout with 7.4 pH compared to washout with 6.5 pH: significantly less; also recorded: significant reduction
[4]; ex vivo treatment, 1 mg/mL, 15 minutes
  reduction in bacterial burden in comparison to control: greater than 2 log
[4]; in vivo study
  reduction in bacterial burden, 1 mg/ml for 15 minutes in comparison to 0.5 mg/ml: significantly greater reduction
[4]; in vivo treatment after I&D
  reduction in bacterial burden in comparison to control: greater than 2 log
[2]; 1 mg/ml PLG0206 in combination with cefazolin (Group 4)
  reduction in bacterial burden: 2.5 log
[2]; 1 mg/ml treatment alone (Group 3)
  bacterial burden in comparison to control: not significant
